{"source": "patent US20230085307A1", "about": "“PYRIDAZINONE COMPOUND AND HERBICIDE” (NISSAN CHEMICAL CORPORATION, priority 2019, published 2023)", "key": {"barnyard grass [1]": {"test_system": "barnyard grass", "test": "Test Example 3: herbicidal effect by foliage application, Wagner pot (Table 18, symbol H)", "format": "in vivo, barnyard grass (Echinochloa crus-galli)", "conditions": "320 g/ha", "summary_of_the_method": "(§1)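 Plants were sown in alluvial soil held under 0.1–0.5 cm standing water and grown 14 days in a greenhouse at 25–30 °C. An emulsifiable formulation, water-diluted to the set dose, was then sprayed onto the foliage, and effects were scored three weeks later using previously defined criteria.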"}, "wild oat [2]": {"test_system": "wild oat", "test": "Test Example 4: herbicidal effect by soil treatment (Table 19, symbol I)", "format": "in vivo, wild oat (Avena fatua)", "conditions": "AAH 320 g/ha", "summary_of_the_method": "(§2)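 Scoring uses the grading scale of an earlier test, three weeks post-application. Treatment consists of spraying a diluted emulsion formulation across the surface of sterilized diluvial soil in which seeds are buried near 1.5 cm deep; boxes are kept in a greenhouse between 25° C. and 30° C.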"}, "barnyard grass [3]": {"test_system": "barnyard grass", "test": "Test Example 5: herbicidal effect by foliage application, plastic box (Table 20, symbol H)", "format": "in vivo, barnyard grass (Echinochloa crus-galli)", "conditions": "foliage application, AAH 320 g/ha, three weeks after application", "summary_of_the_method": "(§3)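 Post-emergence foliar test in sterilized diluvial soil. Compound applied as water-diluted emulsion at a predetermined rate to 14-day-old plants; evaluation at three weeks.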"}, "lambsquarters [4]": {"test_system": "lambsquarters", "test": "Test Example 4: herbicidal effect by soil treatment (Table 19, symbol O)", "format": "in vivo, lambsquarters (Chenopodium album)", "conditions": "AAH 320 g/ha", "summary_of_the_method": "as §2"}, "chickweed [5]": {"test_system": "chickweed", "test": "Test Example 5: herbicidal effect by foliage application, plastic box (Table 20, symbol P)", "format": "in vivo, common chickweed (Stellaria media)", "conditions": "foliage application, AAH 320 g/ha, three weeks after application", "summary_of_the_method": "as §3"}, "persian speedwell [6]": {"test_system": "persian speedwell", "test": "Test Example 5: herbicidal effect by foliage application, plastic box (Table 20, symbol R)", "format": "in vivo, Persian speedwell (Veronica persica)", "conditions": "foliage application, AAH 320 g/ha, three weeks after application", "summary_of_the_method": "as §3"}, "chickweed [7]": {"test_system": "chickweed", "test": "Test Example 4: herbicidal effect by soil treatment (Table 19, symbol P)", "format": "in vivo, common chickweed (Stellaria media)", "conditions": "AAH 320 g/ha", "summary_of_the_method": "as §2"}, "rice flat sedge": {"test_system": "rice flat sedge", "test": "Test Example 3: herbicidal effect by foliage application, Wagner pot (Table 18, symbol E)", "format": "in vivo, rice flat sedge (Cyperus iria)", "conditions": "320 g/ha", "summary_of_the_method": "as §1"}, "blackgrass [8]": {"test_system": "blackgrass", "test": "Test Example 5: herbicidal effect by foliage application, plastic box (Table 20, symbol J)", "format": "in vivo, blackgrass (Alopecurus myosuroides)", "conditions": "foliage application, AAH 320 g/ha, three weeks after application", "summary_of_the_method": "as §3"}, "wild oat [9]": {"test_system": "wild oat", "test": "Test Example 5: herbicidal effect by foliage application, plastic box (Table 20, symbol I)", "format": "in vivo, wild oat (Avena fatua)", "conditions": "foliage application, AAH 320 g/ha, three weeks after application", "summary_of_the_method": "as §3"}, "lambsquarters [10]": {"test_system": "lambsquarters", "test": "Test Example 5: herbicidal effect by foliage application, plastic box (Table 20, symbol O)", "format": "in vivo, lambsquarters (Chenopodium album)", "conditions": "foliage application, AAH 320 g/ha, three weeks after application", "summary_of_the_method": "as §3"}, "southern crabgrass [11]": {"test_system": "southern crabgrass", "test": "Test Example 4: herbicidal effect by soil treatment (Table 19, symbol F)", "format": "in vivo, southern crabgrass (Digitaria ciliaris)", "conditions": "AAH 320 g/ha", "summary_of_the_method": "as §2"}, "velvetleaf [12]": {"test_system": "velvetleaf", "test": "Test Example 4: herbicidal effect by soil treatment (Table 19, symbol M)", "format": "in vivo, velvetleaf (Abutilon theophrasti)", "conditions": "AAH 320 g/ha", "summary_of_the_method": "as §2"}, "blackgrass [13]": {"test_system": "blackgrass", "test": "Test Example 4: herbicidal effect by soil treatment (Table 19, symbol J)", "format": "in vivo, blackgrass (Alopecurus myosuroides)", "conditions": "AAH 320 g/ha", "summary_of_the_method": "as §2"}, "windgrass [14]": {"test_system": "windgrass", "test": "Test Example 5: herbicidal effect by foliage application, plastic box (Table 20, symbol L)", "format": "in vivo, windgrass (Apera spica-venti)", "conditions": "foliage application, AAH 320 g/ha, three weeks after application", "summary_of_the_method": "as §3"}, "barnyard grass [15]": {"test_system": "barnyard grass", "test": "Test Example 4: herbicidal effect by soil treatment (Table 19, symbol H)", "format": "in vivo, barnyard grass (Echinochloa crus-galli)", "conditions": "AAH 320 g/ha", "summary_of_the_method": "as §2"}, "Italian ryegrass [16]": {"test_system": "Italian ryegrass", "test": "Test Example 4: herbicidal effect by soil treatment (Table 19, symbol K)", "format": "in vivo, Italian ryegrass (Lolium multiflorum)", "conditions": "AAH 320 g/ha", "summary_of_the_method": "as §2"}, "Italian ryegrass [17]": {"test_system": "Italian ryegrass", "test": "Test Example 5: herbicidal effect by foliage application, plastic box (Table 20, symbol K)", "format": "in vivo, Italian ryegrass (Lolium multiflorum)", "conditions": "foliage application, AAH 320 g/ha, three weeks after application", "summary_of_the_method": "as §3"}, "redroot pigweed [18]": {"test_system": "redroot pigweed", "test": "Test Example 5: herbicidal effect by foliage application, plastic box (Table 20, symbol N)", "format": "in vivo, redroot pigweed (Amaranthus retroflexus)", "conditions": "foliage application, AAH 320 g/ha, three weeks after application", "summary_of_the_method": "as §3"}, "green foxtail [19]": {"test_system": "green foxtail", "test": "Test Example 4: herbicidal effect by soil treatment (Table 19, symbol G)", "format": "in vivo, green foxtail (Setaria viridis)", "conditions": "AAH 320 g/ha", "summary_of_the_method": "as §2"}, "Chinese sprangletop": {"test_system": "Chinese sprangletop", "test": "Test Example 3: herbicidal effect by foliage application, Wagner pot (Table 18, symbol D)", "format": "in vivo, chinese sprangletop (Leptochloa chinensis)", "conditions": "320 g/ha", "summary_of_the_method": "as §1"}, "windgrass [20]": {"test_system": "windgrass", "test": "Test Example 4: herbicidal effect by soil treatment (Table 19, symbol L)", "format": "in vivo, windgrass (Apera spica-venti)", "conditions": "AAH 320 g/ha", "summary_of_the_method": "as §2"}, "southern crabgrass [21]": {"test_system": "southern crabgrass", "test": "Test Example 5: herbicidal effect by foliage application, plastic box (Table 20, symbol F)", "format": "in vivo, southern crabgrass (Digitaria ciliaris)", "conditions": "foliage application, AAH 320 g/ha, three weeks after application", "summary_of_the_method": "as §3"}, "redroot pigweed [22]": {"test_system": "redroot pigweed", "test": "Test Example 4: herbicidal effect by soil treatment (Table 19, symbol N)", "format": "in vivo, redroot pigweed (Amaranthus retroflexus)", "conditions": "AAH 320 g/ha", "summary_of_the_method": "as §2"}, "green foxtail [23]": {"test_system": "green foxtail", "test": "Test Example 5: herbicidal effect by foliage application, plastic box (Table 20, symbol G)", "format": "in vivo, green foxtail (Setaria viridis)", "conditions": "foliage application, AAH 320 g/ha, three weeks after application", "summary_of_the_method": "as §3"}, "velvetleaf [24]": {"test_system": "velvetleaf", "test": "Test Example 5: herbicidal effect by foliage application, plastic box (Table 20, symbol M)", "format": "in vivo, velvetleaf (Abutilon theophrasti)", "conditions": "foliage application, AAH 320 g/ha, three weeks after application", "summary_of_the_method": "as §3"}, "persian speedwell [25]": {"test_system": "persian speedwell", "test": "Test Example 4: herbicidal effect by soil treatment (Table 19, symbol R)", "format": "in vivo, Persian speedwell (Veronica persica)", "conditions": "AAH 320 g/ha", "summary_of_the_method": "as §2"}}, "data": [{"smiles": "CCCC(=O)Oc1c(C)nn(C)c(=O)c1-c1c(-c2cccc(C#N)c2)sc2ccccc12", "note": "[1-124]", "values": [{"measurement": "herbicidal effect on H (barnyard grass), rating 0-5", "setting": "barnyard grass [1]", "result": "0 (Herbicidal rate of 5% or less (almost no effect))"}, {"measurement": "I: wild oat, herbicidal effect rating", "setting": "wild oat [2]", "result": "0 (Herbicidal rate of 5% or less (almost no effect))"}, {"measurement": "H: barnyard grass, herbicidal effect", "setting": "barnyard grass [3]", "result": "0 (Herbicidal rate of 5% or less (almost no effect))"}, {"measurement": "O: lambsquarters, herbicidal effect rating", "setting": "lambsquarters [4]", "result": "0 (Herbicidal rate of 5% or less (almost no effect))"}, {"measurement": "P: chickweed, herbicidal effect", "setting": "chickweed [5]", "result": "0 (Herbicidal rate of 5% or less (almost no effect))"}, {"measurement": "R: persian speedwell, herbicidal effect", "setting": "persian speedwell [6]", "result": "1 (Herbicidal rate of 5% or more and less than 20%)"}, {"measurement": "P: chickweed, herbicidal effect rating", "setting": "chickweed [7]", "result": "3 (Herbicidal rate of 40% or more and less than 70%)"}, {"measurement": "herbicidal effect on E (rice flat sedge), rating 0-5", "setting": "rice flat sedge", "result": "3 (Herbicidal rate of 40% or more and less than 70%)"}, {"measurement": "J: blackgrass, herbicidal effect", "setting": "blackgrass [8]", "result": "0 (Herbicidal rate of 5% or less (almost no effect))"}, {"measurement": "I: wild oat, herbicidal effect", "setting": "wild oat [9]", "result": "0 (Herbicidal rate of 5% or less (almost no effect))"}, {"measurement": "O: lambsquarters, herbicidal effect", "setting": "lambsquarters [10]", "result": "3 (Herbicidal rate of 40% or more and less than 70%)"}, {"measurement": "F: southern crabgrass, herbicidal effect rating", "setting": "southern crabgrass [11]", "result": "0 (Herbicidal rate of 5% or less (almost no effect))"}, {"measurement": "M: velvetleaf, herbicidal effect rating", "setting": "velvetleaf [12]", "result": "0 (Herbicidal rate of 5% or less (almost no effect))"}, {"measurement": "J: blackgrass, herbicidal effect rating", "setting": "blackgrass [13]", "result": "0 (Herbicidal rate of 5% or less (almost no effect))"}, {"measurement": "L: windgrass, herbicidal effect", "setting": "windgrass [14]", "result": "0 (Herbicidal rate of 5% or less (almost no effect))"}, {"measurement": "H: barnyard grass, herbicidal effect rating", "setting": "barnyard grass [15]", "result": "0 (Herbicidal rate of 5% or less (almost no effect))"}, {"measurement": "K: Italian ryegrass, herbicidal effect rating", "setting": "Italian ryegrass [16]", "result": "0 (Herbicidal rate of 5% or less (almost no effect))"}, {"measurement": "K: Italian ryegrass, herbicidal effect", "setting": "Italian ryegrass [17]", "result": "0 (Herbicidal rate of 5% or less (almost no effect))"}, {"measurement": "N: redroot pigweed, herbicidal effect", "setting": "redroot pigweed [18]", "result": "4 (Herbicidal rate of 70% or more and less than 90%)"}, {"measurement": "G: green foxtail, herbicidal effect rating", "setting": "green foxtail [19]", "result": "0 (Herbicidal rate of 5% or less (almost no effect))"}, {"measurement": "herbicidal effect on D (Chinese sprangletop), rating 0-5", "setting": "Chinese sprangletop", "result": "2 (Herbicidal rate of 20% or more and less than 40%)"}, {"measurement": "L: windgrass, herbicidal effect rating", "setting": "windgrass [20]", "result": "0 (Herbicidal rate of 5% or less (almost no effect))"}, {"measurement": "F: southern crabgrass, herbicidal effect", "setting": "southern crabgrass [21]", "result": "0 (Herbicidal rate of 5% or less (almost no effect))"}, {"measurement": "N: redroot pigweed, herbicidal effect rating", "setting": "redroot pigweed [22]", "result": "0 (Herbicidal rate of 5% or less (almost no effect))"}, {"measurement": "G: green foxtail, herbicidal effect", "setting": "green foxtail [23]", "result": "0 (Herbicidal rate of 5% or less (almost no effect))"}, {"measurement": "M: velvetleaf, herbicidal effect", "setting": "velvetleaf [24]", "result": "3 (Herbicidal rate of 40% or more and less than 70%)"}, {"measurement": "R: persian speedwell, herbicidal effect rating", "setting": "persian speedwell [25]", "result": "0 (Herbicidal rate of 5% or less (almost no effect))"}]}]}
